The target of data set [1] is T1, Metabotropic glutamate receptor 5 (Homo sapiens, UniProt P41594).
Description: Displacement of [3H]MPEPgamma in mGlu5 receptor (unknown origin) incubated for 60 mins by liquid scintillation counting method
Data set [2] relates to Mus musculus. Nature of the data set: Neurotoxicity in C57/BL6 mouse assessed as induction of convulsion at 30 mg/kg, ip. Type of data set: toxicity, organism-based. As to conditions: in vivo.
The target of data set [3] is T1, Metabotropic glutamate receptor 5. The source holds these as a separate data set.
Description: Positive allosteric modulation of human mGlu5A receptor expressed in HEK293 cells coexpressing rat glutamate-aspartate transporter assessed as potentiation of L-glutamate-induced Ca2+ signal incubated for 60 mins by calcium 4 dye based FLIPR assay
A short description of data set [4]: Protein binding in plasma (unknown origin). As to conditions: read-out: PPB (converted). Type of data set: ADME, cell-free.
Data set [5] concerns the target T1, Metabotropic glutamate receptor 5. The source holds these as a separate data set.
Description: Agonist activity at human mGlu5A receptor expressed in HEK293 cells coexpressing rat glutamate-aspartate transporter assessed as induction of Ca2+ release by calcium 4 dye based FLIPR assay
For data set [6], the system named is Mus musculus. The data set is described as follows: Neurotoxicity in C57/BL6 mouse assessed as induction of convulsion at 10 mg/kg, ip. Format: toxicity, organism-based. Particulars: in vivo.
The subject of data set [7] is Mus musculus. Nature of the data set: Neurotoxicity in C57/BL6 mouse assessed as induction of convulsion at 10 mg/kg, ip coadministered with (4R,5R)-5-Phenyl-4-(4-(phenylethynyl)pyridin-2-yl)oxazolidin-2-one. Type of data set: toxicity, organism-based. Particulars: in vivo.
For data set [8], the target named is Metabotropic glutamate receptor 5 (Rattus norvegicus, UniProt P31424). The data set is described as follows: Agonist activity at mGlu5A receptor in primary rat cortical astrocytes. Type of data set: cell-based.

The record followed here is ChEMBL document CHEMBL3804767, “Discovery and Preclinical Evaluation of BMS-955829, a Potent Positive Allosteric Modulator of mGluR5” (ACS Med Chem Lett, 2016).

T1 sequence (P41594 whole entry): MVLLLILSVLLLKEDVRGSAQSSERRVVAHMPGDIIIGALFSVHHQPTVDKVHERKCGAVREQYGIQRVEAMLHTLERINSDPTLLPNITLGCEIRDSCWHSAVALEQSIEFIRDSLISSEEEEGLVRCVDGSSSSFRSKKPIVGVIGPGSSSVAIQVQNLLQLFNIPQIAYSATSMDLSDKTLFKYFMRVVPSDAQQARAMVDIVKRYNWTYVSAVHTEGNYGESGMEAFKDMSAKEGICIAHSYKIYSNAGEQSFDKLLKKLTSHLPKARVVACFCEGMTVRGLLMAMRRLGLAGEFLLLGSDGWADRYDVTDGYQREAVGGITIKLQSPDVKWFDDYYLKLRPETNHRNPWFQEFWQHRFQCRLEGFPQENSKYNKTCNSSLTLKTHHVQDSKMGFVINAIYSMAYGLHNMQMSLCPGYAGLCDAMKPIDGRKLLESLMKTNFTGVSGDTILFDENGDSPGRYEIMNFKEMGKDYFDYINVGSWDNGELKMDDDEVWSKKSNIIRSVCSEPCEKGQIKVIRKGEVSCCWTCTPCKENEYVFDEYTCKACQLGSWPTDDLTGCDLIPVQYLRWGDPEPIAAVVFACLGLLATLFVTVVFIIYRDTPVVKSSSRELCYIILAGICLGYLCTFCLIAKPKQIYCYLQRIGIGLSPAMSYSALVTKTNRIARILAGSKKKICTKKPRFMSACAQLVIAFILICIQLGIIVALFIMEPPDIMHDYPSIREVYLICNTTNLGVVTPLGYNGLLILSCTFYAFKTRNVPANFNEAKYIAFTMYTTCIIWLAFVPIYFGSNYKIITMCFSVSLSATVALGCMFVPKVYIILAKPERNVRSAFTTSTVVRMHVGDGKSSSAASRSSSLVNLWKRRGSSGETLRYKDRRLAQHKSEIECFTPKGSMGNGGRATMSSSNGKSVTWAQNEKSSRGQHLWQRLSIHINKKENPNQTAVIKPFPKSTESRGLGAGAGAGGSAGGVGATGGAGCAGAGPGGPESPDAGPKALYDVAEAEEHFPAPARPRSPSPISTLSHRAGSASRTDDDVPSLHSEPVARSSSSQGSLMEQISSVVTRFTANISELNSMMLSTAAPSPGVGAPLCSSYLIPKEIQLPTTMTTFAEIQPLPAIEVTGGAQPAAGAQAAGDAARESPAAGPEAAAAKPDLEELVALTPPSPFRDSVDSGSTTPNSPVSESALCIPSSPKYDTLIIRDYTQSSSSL
Sequence of Metabotropic glutamate receptor 5 (Rattus norvegicus, UniProt P31424) (P31424 whole entry): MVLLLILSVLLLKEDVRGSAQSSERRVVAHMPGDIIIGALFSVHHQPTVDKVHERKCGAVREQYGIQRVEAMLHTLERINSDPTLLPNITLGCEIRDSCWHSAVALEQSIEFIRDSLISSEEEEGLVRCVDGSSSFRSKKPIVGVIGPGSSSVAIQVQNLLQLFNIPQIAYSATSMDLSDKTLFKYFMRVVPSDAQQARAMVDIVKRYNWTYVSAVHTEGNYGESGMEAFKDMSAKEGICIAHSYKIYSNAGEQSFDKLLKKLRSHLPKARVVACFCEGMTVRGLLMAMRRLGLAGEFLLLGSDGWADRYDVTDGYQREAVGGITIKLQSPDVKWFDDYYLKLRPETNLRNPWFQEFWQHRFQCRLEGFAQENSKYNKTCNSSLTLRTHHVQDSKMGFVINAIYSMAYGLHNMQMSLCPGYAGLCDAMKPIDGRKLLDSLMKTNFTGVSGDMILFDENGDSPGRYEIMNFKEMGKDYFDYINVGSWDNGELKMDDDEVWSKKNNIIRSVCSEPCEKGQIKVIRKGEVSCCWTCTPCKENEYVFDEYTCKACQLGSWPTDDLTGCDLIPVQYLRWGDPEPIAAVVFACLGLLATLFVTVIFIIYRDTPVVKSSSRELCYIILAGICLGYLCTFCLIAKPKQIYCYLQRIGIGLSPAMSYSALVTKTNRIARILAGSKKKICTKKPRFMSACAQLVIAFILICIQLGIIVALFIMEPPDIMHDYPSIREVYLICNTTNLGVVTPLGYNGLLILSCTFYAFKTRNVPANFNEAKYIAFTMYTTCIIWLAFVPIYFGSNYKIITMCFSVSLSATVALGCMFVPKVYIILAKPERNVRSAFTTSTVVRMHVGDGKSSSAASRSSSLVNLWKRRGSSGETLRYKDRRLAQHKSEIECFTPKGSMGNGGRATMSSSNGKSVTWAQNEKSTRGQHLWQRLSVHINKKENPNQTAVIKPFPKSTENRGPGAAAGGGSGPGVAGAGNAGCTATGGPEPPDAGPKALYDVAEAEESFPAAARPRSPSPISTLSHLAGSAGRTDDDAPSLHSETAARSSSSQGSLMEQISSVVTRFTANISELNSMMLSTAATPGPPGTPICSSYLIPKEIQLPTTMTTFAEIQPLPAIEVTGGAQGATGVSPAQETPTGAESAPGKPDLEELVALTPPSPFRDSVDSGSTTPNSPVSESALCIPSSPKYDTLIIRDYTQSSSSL

By Ki is commonly meant a measure of affinity in units of concentration, obtained from inhibition or displacement. Read a low Ki as tighter binding. What is called EC50 is the concentration at which the effect is half-maximal. Higher therefore signals lower potency in that assay. In turn, `O=C1N[C@H](c2cc(C#Cc3ccccc3)ccn2)[C@@H](c2ccccc2)O1` displayed a Ki in data set [1] of 0.01 µM. In data set [2], the Activity result is on record as “Non-toxic”. For the same compound, the EC50 in data set [3] and in data set [5] was over 3 µM each time. Moreover, the fraction unbound in data set [4] is 0.006.
On to `COc1cccc([C@H]2OC(=O)N[C@@H]2c2cccc(C#Cc3ccccc3)c2)c1`, for which the inhibition constant (Ki) in data set [1] is 0.013 µM. Also, the EC50 is 0.029 µM in data set [3] and over 30 µM in data set [5]. The Activity result in data set [6] is on record as “Non-toxic”. The fraction unbound in data set [4] was 0.003.
As for `O=C1N[C@H](c2cncc(C#Cc3cncc(F)c3)c2)[C@@H](c2ccc(F)cc2)O1`, the Activity result in data set [7] is “Non-toxic”; in data set [6], “Toxic”. In addition, the Ki in data set [1] came out at 0.025 µM. The EC50 was determined as 0.31 µM in data set [8] and 0.006 µM in data set [3]. In addition, the fraction unbound in data set [4] was 0.035.
